According to patent US11767310B2, “Nicotinamide RIPK1 inhibitors” (AbbVie Inc., priority 2021, dated 2023):
Read-outs that look alike come from different tables or passages of the source.

Columns and labels:
Assay in all cases: Kinase binding screen
Conditions in all cases: read-out: Percent Control at 100 nM Compound Concentration
[1] = molecular target: ABL1(F317L)-nonphosphorylated (Homo sapiens (Human), UniProt P00519, F317L)
[2] = molecular target: ABL1(T315I)-phosphorylated (Homo sapiens (Human), UniProt P00519, T315I)
[3] = molecular target: AMPK-alpha2 (Homo sapiens (Human), UniProt P54646)
[4] = molecular target: ASK2 (Homo sapiens (Human), UniProt O95382)
[5] = molecular target: CDK11 (Homo sapiens (Human), UniProt Q9BWU1)
Chain of CDK11 (Q9BWU1 whole entry): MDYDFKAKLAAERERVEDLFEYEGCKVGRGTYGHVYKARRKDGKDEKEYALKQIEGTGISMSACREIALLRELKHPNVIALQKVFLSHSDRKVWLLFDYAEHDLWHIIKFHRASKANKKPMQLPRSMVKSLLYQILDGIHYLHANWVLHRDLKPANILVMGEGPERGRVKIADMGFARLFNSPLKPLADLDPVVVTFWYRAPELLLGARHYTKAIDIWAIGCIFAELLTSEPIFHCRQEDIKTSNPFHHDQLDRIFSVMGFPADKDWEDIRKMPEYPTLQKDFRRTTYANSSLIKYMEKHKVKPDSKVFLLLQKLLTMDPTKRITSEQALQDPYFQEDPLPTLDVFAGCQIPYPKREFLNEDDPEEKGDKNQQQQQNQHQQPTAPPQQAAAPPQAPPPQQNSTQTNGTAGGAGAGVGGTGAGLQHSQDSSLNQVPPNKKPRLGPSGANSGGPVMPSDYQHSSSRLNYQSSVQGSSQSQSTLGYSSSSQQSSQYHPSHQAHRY

[6] = molecular target: CDKL1 (Homo sapiens (Human), UniProt Q00532)
[7] = molecular target: CSNK1A1L (Homo sapiens (Human), UniProt Q8N752)
[8] = molecular target: DRAK1 (Homo sapiens (Human), UniProt Q9UEE5)
[9] = molecular target: EPHA7 (Homo sapiens (Human), UniProt Q15375)
[10] = molecular target: FLT4 (Homo sapiens (Human), UniProt P35916)
Chain of FLT4 (P35916 25-1363): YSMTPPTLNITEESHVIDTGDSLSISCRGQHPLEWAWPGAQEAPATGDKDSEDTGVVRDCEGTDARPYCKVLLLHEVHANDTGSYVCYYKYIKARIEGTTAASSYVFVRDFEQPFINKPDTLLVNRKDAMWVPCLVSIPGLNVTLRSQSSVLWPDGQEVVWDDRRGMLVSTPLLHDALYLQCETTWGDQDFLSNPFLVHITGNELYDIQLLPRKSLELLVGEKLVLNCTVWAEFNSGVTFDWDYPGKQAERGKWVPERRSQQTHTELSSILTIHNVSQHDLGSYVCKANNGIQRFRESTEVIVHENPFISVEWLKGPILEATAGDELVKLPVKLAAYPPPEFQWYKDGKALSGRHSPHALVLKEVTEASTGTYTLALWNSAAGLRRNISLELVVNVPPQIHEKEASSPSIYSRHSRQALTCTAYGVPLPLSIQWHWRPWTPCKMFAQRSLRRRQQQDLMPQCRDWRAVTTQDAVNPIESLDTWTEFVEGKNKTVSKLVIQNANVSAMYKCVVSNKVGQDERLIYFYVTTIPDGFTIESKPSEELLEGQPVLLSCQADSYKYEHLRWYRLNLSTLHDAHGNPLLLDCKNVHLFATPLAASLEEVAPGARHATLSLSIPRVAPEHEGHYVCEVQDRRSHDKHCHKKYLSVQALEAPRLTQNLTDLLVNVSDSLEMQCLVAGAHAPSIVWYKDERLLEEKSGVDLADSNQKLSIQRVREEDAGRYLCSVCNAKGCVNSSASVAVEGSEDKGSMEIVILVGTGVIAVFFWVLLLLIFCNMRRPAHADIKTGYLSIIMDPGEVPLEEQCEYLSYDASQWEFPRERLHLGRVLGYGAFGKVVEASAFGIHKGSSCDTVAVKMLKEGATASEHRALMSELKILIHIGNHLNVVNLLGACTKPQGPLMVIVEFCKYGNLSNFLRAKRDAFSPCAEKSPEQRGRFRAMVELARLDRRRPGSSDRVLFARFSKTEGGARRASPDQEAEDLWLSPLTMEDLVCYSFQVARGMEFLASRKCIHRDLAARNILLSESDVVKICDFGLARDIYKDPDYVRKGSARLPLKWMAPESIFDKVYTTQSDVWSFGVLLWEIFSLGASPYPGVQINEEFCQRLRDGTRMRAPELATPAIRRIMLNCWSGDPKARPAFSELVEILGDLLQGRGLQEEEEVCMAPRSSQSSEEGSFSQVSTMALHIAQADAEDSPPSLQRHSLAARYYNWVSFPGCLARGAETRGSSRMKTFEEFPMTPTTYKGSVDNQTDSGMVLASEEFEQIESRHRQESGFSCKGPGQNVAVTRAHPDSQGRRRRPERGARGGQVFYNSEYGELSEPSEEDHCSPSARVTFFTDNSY

[11] = molecular target: HPK1 (Homo sapiens (Human), UniProt Q92918)
[12] = molecular target: IGFIR (Homo sapiens (Human), UniProt P08069)
[13] = molecular target: LRRK2(G2019S) (Homo sapiens (Human), UniProt Q5S007, G2019S)
Chain of LRRK2(G2019S) (Q5S007 whole entry G2019S): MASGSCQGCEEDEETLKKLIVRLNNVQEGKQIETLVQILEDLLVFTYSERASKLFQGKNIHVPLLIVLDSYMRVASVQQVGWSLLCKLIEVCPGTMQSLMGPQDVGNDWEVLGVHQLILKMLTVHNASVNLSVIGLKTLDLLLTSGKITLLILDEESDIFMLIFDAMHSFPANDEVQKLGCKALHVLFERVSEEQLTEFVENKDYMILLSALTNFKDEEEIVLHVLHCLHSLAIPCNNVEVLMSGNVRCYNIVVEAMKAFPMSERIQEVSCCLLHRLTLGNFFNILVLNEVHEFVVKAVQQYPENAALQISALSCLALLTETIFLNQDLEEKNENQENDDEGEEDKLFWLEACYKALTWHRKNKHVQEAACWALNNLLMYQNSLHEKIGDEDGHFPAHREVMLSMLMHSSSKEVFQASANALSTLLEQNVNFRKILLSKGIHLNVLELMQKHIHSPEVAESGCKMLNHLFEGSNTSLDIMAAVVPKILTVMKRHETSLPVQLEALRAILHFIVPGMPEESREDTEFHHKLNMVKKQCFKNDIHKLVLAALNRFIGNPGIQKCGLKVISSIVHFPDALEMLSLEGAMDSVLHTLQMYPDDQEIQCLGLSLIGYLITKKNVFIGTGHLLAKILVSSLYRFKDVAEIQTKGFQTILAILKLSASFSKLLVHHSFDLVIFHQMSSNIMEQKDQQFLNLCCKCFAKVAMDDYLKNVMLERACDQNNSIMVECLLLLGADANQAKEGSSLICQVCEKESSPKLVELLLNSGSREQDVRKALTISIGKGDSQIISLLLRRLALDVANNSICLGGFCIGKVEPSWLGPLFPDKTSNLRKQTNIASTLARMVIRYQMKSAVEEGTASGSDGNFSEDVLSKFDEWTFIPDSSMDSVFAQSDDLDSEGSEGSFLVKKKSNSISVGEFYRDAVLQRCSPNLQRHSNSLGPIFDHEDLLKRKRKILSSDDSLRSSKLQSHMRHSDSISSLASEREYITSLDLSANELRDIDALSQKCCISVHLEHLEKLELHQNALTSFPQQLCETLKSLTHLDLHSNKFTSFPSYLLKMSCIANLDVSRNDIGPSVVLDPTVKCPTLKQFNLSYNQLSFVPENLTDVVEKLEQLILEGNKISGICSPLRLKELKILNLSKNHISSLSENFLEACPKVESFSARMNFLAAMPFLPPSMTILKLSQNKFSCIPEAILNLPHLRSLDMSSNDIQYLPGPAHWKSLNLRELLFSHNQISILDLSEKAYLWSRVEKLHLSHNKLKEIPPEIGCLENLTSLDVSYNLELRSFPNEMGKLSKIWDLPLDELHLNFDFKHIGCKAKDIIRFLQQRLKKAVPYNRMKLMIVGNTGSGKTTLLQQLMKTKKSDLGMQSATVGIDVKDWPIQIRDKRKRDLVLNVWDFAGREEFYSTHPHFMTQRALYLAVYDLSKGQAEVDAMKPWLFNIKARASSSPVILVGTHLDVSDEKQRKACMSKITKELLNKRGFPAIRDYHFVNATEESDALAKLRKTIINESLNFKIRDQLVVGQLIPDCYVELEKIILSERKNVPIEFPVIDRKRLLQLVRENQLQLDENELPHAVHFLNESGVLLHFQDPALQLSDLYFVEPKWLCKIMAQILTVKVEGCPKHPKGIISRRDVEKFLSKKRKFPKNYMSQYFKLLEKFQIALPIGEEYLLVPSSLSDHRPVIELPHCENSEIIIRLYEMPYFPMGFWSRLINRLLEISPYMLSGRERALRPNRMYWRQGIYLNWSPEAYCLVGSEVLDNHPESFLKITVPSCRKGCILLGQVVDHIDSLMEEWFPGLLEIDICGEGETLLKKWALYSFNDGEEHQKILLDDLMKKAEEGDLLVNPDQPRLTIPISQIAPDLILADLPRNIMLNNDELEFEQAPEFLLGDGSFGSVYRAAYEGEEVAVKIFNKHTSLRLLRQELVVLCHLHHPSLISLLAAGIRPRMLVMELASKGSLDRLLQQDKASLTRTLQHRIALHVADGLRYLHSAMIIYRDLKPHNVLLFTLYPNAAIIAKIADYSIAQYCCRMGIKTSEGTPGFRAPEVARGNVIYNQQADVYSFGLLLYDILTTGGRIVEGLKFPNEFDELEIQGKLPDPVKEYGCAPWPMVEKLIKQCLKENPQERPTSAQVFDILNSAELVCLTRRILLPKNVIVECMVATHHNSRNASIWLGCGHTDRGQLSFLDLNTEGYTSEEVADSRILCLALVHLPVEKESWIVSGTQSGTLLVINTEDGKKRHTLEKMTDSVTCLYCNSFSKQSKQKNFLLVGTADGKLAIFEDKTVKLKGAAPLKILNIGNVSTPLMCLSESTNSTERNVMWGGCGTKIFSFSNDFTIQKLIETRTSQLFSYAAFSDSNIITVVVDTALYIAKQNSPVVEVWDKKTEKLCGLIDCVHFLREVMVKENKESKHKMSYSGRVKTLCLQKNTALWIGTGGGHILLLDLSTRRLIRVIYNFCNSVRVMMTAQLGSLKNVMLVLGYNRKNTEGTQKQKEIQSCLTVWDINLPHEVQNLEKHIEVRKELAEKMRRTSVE

[14] = molecular target: MAK (Homo sapiens (Human), UniProt P20794)
Chain of MAK (P20794 whole entry): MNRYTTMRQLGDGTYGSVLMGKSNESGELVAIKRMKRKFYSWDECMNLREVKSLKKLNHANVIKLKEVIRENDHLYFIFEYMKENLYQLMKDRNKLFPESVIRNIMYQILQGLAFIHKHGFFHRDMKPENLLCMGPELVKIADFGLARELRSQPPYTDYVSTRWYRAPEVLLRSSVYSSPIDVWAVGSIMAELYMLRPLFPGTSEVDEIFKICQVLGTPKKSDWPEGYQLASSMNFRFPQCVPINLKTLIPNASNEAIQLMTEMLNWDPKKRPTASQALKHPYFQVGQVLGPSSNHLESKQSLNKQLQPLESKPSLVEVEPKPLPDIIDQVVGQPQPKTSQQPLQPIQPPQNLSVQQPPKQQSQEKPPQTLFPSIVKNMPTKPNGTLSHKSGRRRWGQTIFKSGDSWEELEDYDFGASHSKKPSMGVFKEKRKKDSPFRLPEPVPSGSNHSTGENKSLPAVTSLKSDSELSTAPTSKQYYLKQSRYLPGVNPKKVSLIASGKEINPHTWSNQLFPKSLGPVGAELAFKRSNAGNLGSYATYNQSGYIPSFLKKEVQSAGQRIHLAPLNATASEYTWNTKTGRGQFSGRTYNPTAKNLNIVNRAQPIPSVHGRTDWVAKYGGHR

[15] = molecular target: MAPKAPK2 (Homo sapiens (Human), UniProt P49137)
[16] = molecular target: MLK2 (Homo sapiens (Human), UniProt Q02779)
[17] = molecular target: MST3 (Homo sapiens (Human), UniProt Q9Y6E0)
[18] = molecular target: MST4 (Homo sapiens (Human), UniProt Q9P289)
[19] = molecular target: MY03B (Homo sapiens (Human), UniProt Q8WXR4)
[20] = molecular target: PDPK1 (Homo sapiens (Human), UniProt O15530)
[21] = molecular target: PHKG2 (Homo sapiens (Human), UniProt P15735)
[22] = molecular target: PIK3CA(H1047Y) (Homo sapiens (Human), UniProt P42336, H1047Y)
[23] = molecular target: PIK3CA(M10431) (Homo sapiens (Human), UniProt P42336, M1043I)
[24] = molecular target: RET (Homo sapiens (Human), UniProt P07949)
[25] = molecular target: RPS6KA5(Kin.Dom.1-N-terminal) (Homo sapiens (Human), UniProt O75582)
[26] = molecular target: TAOK2 (Homo sapiens (Human), UniProt Q9UL54)
[27] = molecular target: VRK2 (Homo sapiens (Human), UniProt Q86Y07)
[28] = molecular target: YES (Homo sapiens (Human), UniProt P07947)

In the case of `CN(C[C@@H](O)Cc1ccccc1)C(=O)c1cncc(C#Cc2cnn(C(F)F)c2)c1` [Example 2, (S)-5-((1-(difluoromethyl)-1H-pyrazol-4-yl)ethynyl)-N-(2-hydroxy-3-phenylpropyl)-N-methylnicotinamide], the remaining activity at 0.1 µM ([1]; ABL1(F317L)-nonphosphorylated) is reported as 100%, the remaining activity at 0.1 µM ([2]; ABL1(T315I)-phosphorylated) is reported as 80% and the remaining activity at 0.1 µM ([3]; AMPK-alpha2) is reported as 89%. It also gave a remaining activity at 0.1 µM ([4]; ASK2) of 100%, a remaining activity at 0.1 µM ([5]; CDK11) of 4.8% and a remaining activity at 0.1 µM ([6]; CDKL1) of 100%. The remaining activity at 0.1 µM ([7]; CSNK1A1L) was 100%, the remaining activity at 0.1 µM ([8]; DRAK1) was 95% and the remaining activity at 0.1 µM ([9]; EPHA7) was 97%. For the same compound, the remaining activity at 0.1 µM ([10]; FLT4) was 100%, the remaining activity at 0.1 µM ([11]; HPK1) was 78% and the remaining activity at 0.1 µM ([12]; IGFIR) was 100%. For the same compound, the remaining activity at 0.1 µM ([13]; LRRK2(G2019S)) was 100%, the remaining activity at 0.1 µM ([14]; MAK) was 100% and the remaining activity at 0.1 µM ([15]; MAPKAPK2) was 100%. The remaining activity at 0.1 µM ([16]; MLK2) was 66%, the remaining activity at 0.1 µM ([17]; MST3) was 100% and the remaining activity at 0.1 µM ([18]; MST4) was 97%. The remaining activity at 0.1 µM ([19]; MY03B) was 95%, the remaining activity at 0.1 µM ([20]; PDPK1) was 99% and the remaining activity at 0.1 µM ([21]; PHKG2) was 100%. For the same compound, the remaining activity at 0.1 µM ([22]; PIK3CA(H1047Y)) was 71%, the remaining activity at 0.1 µM ([23]; PIK3CA(M10431)) was 92% and the remaining activity at 0.1 µM ([24]; RET) was 100%. For the same compound, the remaining activity at 0.1 µM ([25]; RPS6KA5(Kin.Dom.1-N-terminal)) was 91%, the remaining activity at 0.1 µM ([26]; TAOK2) was 84% and the remaining activity at 0.1 µM ([27]; VRK2) was 91%. For the same compound, the remaining activity at 0.1 µM ([28]; YES) was 100%.
In the case of `CN(C[C@H](Cc1ccccc1)OP(=O)(O)O)C(=O)c1cncc(C#Cc2cnn(C(F)F)c2)c1` [Example 19, (S)-1-(5-((1-(difluoromethyl)-1H-pyrazol-4-yl)ethynyl)-N-methylnicotinamido)-3-phenylpropan-2-yl dihydrogen phosphate], the remaining activity at 0.1 µM [1] is reported as 100%, the remaining activity at 0.1 µM [2] is reported as 92% and the remaining activity at 0.1 µM [3] is reported as 100%. For the same compound, the remaining activity at 0.1 µM [4] was 98%, the remaining activity at 0.1 µM [5] was 92% and the remaining activity at 0.1 µM [6] was 100%. For the same compound, the remaining activity at 0.1 µM [7] was 97%, the remaining activity at 0.1 µM [8] was 100% and the remaining activity at 0.1 µM [9] was 96%. The remaining activity at 0.1 µM [10] was 100%, the remaining activity at 0.1 µM [11] was 92% and the remaining activity at 0.1 µM [12] was 98%. For the same compound, the remaining activity at 0.1 µM [13] was 93%, the remaining activity at 0.1 µM [14] was 100% and the remaining activity at 0.1 µM [15] was 100%. It also gave a remaining activity at 0.1 µM [16] of 69%, a remaining activity at 0.1 µM [17] of 100% and a remaining activity at 0.1 µM [18] of 84%. It also gave a remaining activity at 0.1 µM [19] of 79%, a remaining activity at 0.1 µM [20] of 100% and a remaining activity at 0.1 µM [21] of 100%. It also gave a remaining activity at 0.1 µM [22] of 72%, a remaining activity at 0.1 µM [23] of 85% and a remaining activity at 0.1 µM [24] of 100%. For the same compound, the remaining activity at 0.1 µM [25] was 100%, the remaining activity at 0.1 µM [26] was 77% and the remaining activity at 0.1 µM [27] was 95%. The remaining activity at 0.1 µM [28] was 100%.
